Experimental data published in patent publication US11433043B2, “Compounds useful for increasing neurogenesis in neural tissue” (ALFASIGMA S.P.A., priority 2010, dated 2022).

Columns and labels:
Format in all cases: cell-based
[1] = test system: adult neural progenitors taken from the mouse hippocampus; assay: Cell survival: apoptotic nuclei (Hoechst staining) after differentiation
Description: (§1) After differentiation in the presence of ALC, a vehicle or reference drugs, the medium was collected and the activity of the LDH enzyme was determined using the Cytotoxicity Detection Kit LDH (Roche Applied Science), following the manufacturer's instructions, to quantify death due to necrosis. In parallel, to assess also apoptotic death, after fixation, the cell nuclei were marked with 0.8 ng/ml Hoechst (Sigma-Aldrich) diluted in PBS. The apoptic nuclei were counted by an operator (blind to the nature of the treatment undergone by the cells) using an ECLIPSE E600 fluorescence microscope (NIKON, Calenzano, Italy) with a 60× lens. All experiments were conducted on at least five cell preparations, with each experimental point in triplicate.

[2] = test system: adult neural progenitors taken from the mouse hippocampus; assay: Cell survival: LDH enzyme activity in culture medium (necrosis)
Description: as §1

[3] = test system: adult neural progenitors taken from the mouse hippocampus; assay: Differentiation of stem cells/adult neural progenitors from hippocampal neurospheres (MAP-2/nestin immunofluorescence); conditions: for NPC neuronal differentiation: compared to ALC 1 mM
Description: The adult stem cells from the mouse hippocampus were prepared and maintained in culture in the form of neurospheres as described previously in Denis-Donini S. et al. J. Neuroscience, 2008. In particular, male CD1 mice aged 3-5 months were used, in accordance with the animal experimentation laws.
For differentiation, the cells derived from the hippocampal neurospheres with passages of between 4-12 were dissociated and plated on Lab-Tek 8-well permanox chamber slides (Nunc, Wiesbaden, Germany) previously coated with mouse laminin (2.5 μg/cm^2 Sigma) at a density of about 40,000 cells/cm^2. The composition of the differentiation medium was: Neurobasal-A, supplement B27, glutamine 2 mM, 100 U/100 μg/ml penicillin/streptomycin. ALC (0.1-2 mM) or a vehicle was added to the medium. After 24 hours the cells were washed and fixed in 4% paraformaldehyde for 20 min for subsequent analysis using immunofluorescence.
The cells fixed after differentiation in the presence of ALC, a vehicle or reference drugs were washed three times in PBS and permeabilized by incubation for 5 min, at room temperature with PBS supplemented with 0.48% (vol/vol) Triton X-100 (Sigma). Subsequently the cells were incubated with the following primary antibodies: anti-nestin mouse monoclonal antibody, 1:1200, Abcam, Cambridge, Mass.); anti-MAP-2 (rabbit polyclonal antibody, 1:600, Chemicon). The cells were incubated in the primary antibody for 150 min at room temperature in a solution containing 8% (vol/vol) of goat serum. The secondary antibodies used were: Alexa Fluor 594-conjugated donkey anti mouse antibody (1:1400, Molecular Probes), Alexa Fluor 488-conjugated donkey anti-rabbit (1:1 600, Molecular Probes), in a solution containing 16% (vol/vol) of donkey serum. The nuclei were then counterstained with Draq5 (1:2000, Alexis Biochemicals) prepared in PBS. The slides were assembled using Fluorescent Mounting Medium (DakoCytomation, Glostrup).
In each experiment, the cells of at least 5 fields/well (corresponding to about 150 cells), were quantified if positive to one or more phenotypical markers used to distinguish between them: undifferentiated stem progenitor cells, immature neurons, mature neurons. The cells were counted by an operator (blind to the nature of the treatment undergone by the cells) using an ECLIPSE E600 fluorescence microscope (NIKON, Calenzano, Italy) with a 60× lens. All experiments were conducted on at least five cell preparations, with each experimental point in triplicate.

[4] = Example 1, ALC 0.1-2 mM, 24 hours, FIG. 5
[5] = at the concentrations that induced neurogenesis
[6] = Example 2, 0.3-1 mM, lesser extent compared to ALC 1 mM, FIG. 6

SMILES	percentage of apoptotic nuclei ([1]; ALC 100 μM, 300 μM or 1 mM, FIG. 3)	activity of the LDH enzyme, an index of necrosis, in the culture medium ([2]; ALC 100 μM, 300 μM or 1 mM, FIG. 4)	percentage of MAP-2 positive cells in culture ([3]; Example 1, ALC 0.1-2 mM, 24 hours differentiation, concentration-dependent, FIG. 1)	number of immature neurons (MAP2 positive, nestin positive) [3, 4]	number of progenitor cells (MAP2 negative, nestin negative) [3, 4]	number of stem/progenitor cells (MAP2 negative, nestin positive) [3, 4]	number of mature neurons (MAP2 positive, nestin negative) ([3]; Example 1, ALC 0.1-2 mM, 24 hours, concentration-dependent, FIG. 5)	percentage of apoptotic nuclei [1, 5]	activity of the LDH enzyme, an index of necrosis [2, 5]	NPC neuronal differentiation ([3]; Example 2, 0.3-1 mM, FIG. 6)	number of a subpopulation of undifferentiated stem/neural progenitors [3, 6]	number of immature neurons [3, 6]	number of mature neurons [3, 6]
CC(=O)O[C@H](CC(=O)[O-])C[N+](C)(C)C [ALC, acetyl L-carnitine]	did not reduce	did not reduce	increase	increased	decreased	no effect	increased	–	–	–	–	–	–
CCC(=O)O[C@H](CC(=O)[O-])C[N+](C)(C)C [PLC, propionyl L-carnitine]	–	–	–	–	–	–	–	did not reduce	did not reduce	less potent activator	reduced	increased	increased
C[N+](C)(C)C[C@H](O)CC(=O)[O-] [LC, L-carnitine]	–	–	–	–	–	–	–	–	–	no effect	–	–	–
